# Experiments:
# [1] = test system: BLM-induced scleroderma model mice; assay: Endothelial-to-mesenchymal transition (Endo-MT) in skin of BLM-induced scleroderma model mice (VE-cadherin/FSP1 immunostaining, Snail1 mRNA); type: in vivo
# Description: Paraffin sections were prepared using skin samples of the injection site of BLM-induced scleroderma model mice prepared under the same conditions as in Example 1. A rabbit anti-VE-cadherin antibody (Santa Cruz Biotechnolog) and a goat anti-fibroblast-specific protein 1 (FSP1) antibody (abcam, Cambridge, UK) as primary antibodies, and an FITC-conjugated donkey anti-rabbit IgG antibody (Santa Cruz Biotechnolog) and an Alexa Fluor donkey 555 anti-goat IgG antibody (Invitrogen, Carlsbad, Calif., USA) as secondary antibodies, were reacted with the sections, and nuclear staining was performed using Vectashield with DAPI (Vector Laboratories, Burlingame, Calif., USA). Observation was carried out using Bio Zero BZ-8000 (Keyence, Osaka, Japan) at wavelengths of 495 nm (green), 565 nm (red), and 400 nm (blue). The number of cells stained with both FSP1 and VE-Cadherin, which are observed as green color and red color, respectively (cells that had undergone Endo-MT), was compared. Further, from the skin samples, RNA was extracted by the same method as in Example 1, and the mRNA level of Snail1 was measured. Primers having the following sequences were used.
# [2] = test system: BLM-induced scleroderma model mice; assay: Study on inflammation and immune abnormality in BLM-induced scleroderma model mice (FACS of CD4-positive cells, skin cytokine mRNA); type: in vivo
# Description: BLM-induced scleroderma model mice were prepared by the same treatment as in Example 1 except that the bleomycin administration treatment was carried out for only one week. On the last day of the administration, bilateral inguinal lymph nodes and the spleen were removed from each mouse. After mashing the lymph nodes, lymphocytes were separated therefrom. To blood cells removed from the spleen, RBC lysis buffer (0.0017 M Trizma, Sigma-Aldrich, 0.1 M NH4Cl 2.675 g, Sigma-Aldrich) was added to separate lymphocytes. The lymphocytes were subjected to staining of surface antigens using an anti-CD3 antibody (17A2), anti-CD4 antibody (RM4-5), and anti-CD8a antibody (53-6.7). Further, stimulation was carried out with 10 ng/ml phorbol myristate acetate (Sigma-Aldrich), 1 μg/ml ionomycin (Sigma-Aldrich), and 1 μg/ml brefeldin A ([…]; BD PharMingen) for four hours, and staining of intracellular antigens was carried out using an anti-interleukin (IL)-4 antibody (11B11), anti-IL17A antibody (TC11-18HC0.1), and anti-interferon (IFN)-γ antibody (XMG1.2) (all antibodies were manufactured by BioLegend, San Diego, Calif., USA). The stained lymphocytes were analyzed using a FACS Verseflow cytometer (BD Biosciences).
# Further, from the skin of the back at the injection site of each BLM-induced scleroderma model mouse, RNA was extracted by the same method as in Example 1, and the mRNA levels of IL4, IL1 b, and arginase were measured. Primers having the following sequences were used.
# [3] = test system: BLM-induced scleroderma model mice; assay: Study on fibrosis in BLM-induced scleroderma model mice (dermal thickness, collagen, α-SMA-positive fibroblasts, skin mRNA); type: in vivo, C57BL/6 mice
# Description: To the skin of the back of 8-week-old C57BL/6 mice (wild type), 1 mg/ml bleomycin (BLM) solution prepared with phosphate buffered saline (PBS) was intracutaneously injected at a dose of 300 μg every day for four weeks to prepare BLM-induced scleroderma model mice. A control group was provided by subcutaneous injection of the same amount of PBS. At the same time, monoammonium glycyrrhizinate (Cokey Co., Ltd.) dissolved in PBS was intraperitoneally administered at a dose of 30 mg/kg every day for four weeks. A control group was provided by intraperitoneal administration of the same amount of PBS. Using a skin biopsy punch with a diameter of 6 mm, the skin tissue at the injection site was collected, and subjected to Hematoxylin & Eosin staining to measure the dermal thickness. Further, a skin sample collected by the same method was subjected to quantification of the collagen content using a QuickZyme Total Collagen Assay kit (QuickZyme BioSciences B.V., Netherlands).
# Paraffin sections were prepared using the skin of the back at the injection site of each BLM-induced scleroderma model mouse, and reacted with an anti-α-smooth muscle actin (α-SMA) antibody (Sigma-Aldrich, St. Louis, Mo., USA) according to the manufacturer's instruction provided for the VEVTOR M.O.M Immunodetection Kit (Vector laboratories, Burlingame, Calif., USA), followed by coloring with DAB (0.2 mg/ml, DOJINDO LABORATORIES, Kumamoto, JAPAN). For each mouse skin sample, three photographs of the superficial dermal layer were randomly taken for ×400 viewing areas, and the numbers of spindle-shaped cells positive for α-SMA were counted. Their average was regarded as the number of α-SMA-positive fibroblasts in the mouse. Comparison was made between the glycyrrhizic acid group and the control group.
# Further, RNA was extracted from the skin of the back at the injection site of each BLM-induced scleroderma model mouse using an RNeasy min kit (Qiagen Valencia, Calif., USA), and then reverse-transcribed into cDNA using iScript cDNA Synthesis Kits (Bio-Rad, Hercules, Calif., USA). Measurement by quantitative real-time PCR was carried out using a SYBR Green PCR Master Mix (Life technologies) with ABI prism 7000 (Life technologies). The measurement was carried out in triplicate for each sample to calculate the average value. As a reference gene, Gapdh was used. The relative expression level of mRNA of the subject gene was calculated by the ^ΔΔCt method. Primers having the following sequences were used.
# [4] = test system: mice deficient for vascular endothelial cell-specific Fli1 (Fli1 flox/flox; Tie2-Cre); assay: Extravasation of Evans blue dye in vascular endothelial cell-specific Fli1 deficient mice; type: in vivo; conditions: vascular endothelial cell-specific Fli1 knockout mice; intraperitoneal administration, two weeks; absorbance at 620 nm
# Description: Subsequently, under the same conditions as in Example 1, monoammonium glycyrrhizinate or PBS was intraperitoneally administered to 10-week-old mice deficient for vascular endothelial cell-specific Fli1 (Fli1 flox/flox; Tie2-Cre: see American Journal of Pathology, April 2010 Volume 176, Issue 4, p 1983-1998), which are model mice for angiopathy in scleroderma, or to control mice (Fli1 flox/flox). Two weeks later, 200 μl of Evans blue dye (0.5% in PBS) was administered into the tail vein of each mouse, and the mouse was euthanized 30 minutes thereafter, followed by incision of the skin from the middle of the abdomen. Cutaneous blood vessels were macroscopically observed from the dermal side to evaluate the degree of leakage of the dye. Further, for measurement of extravasation of Evans blue, skin was collected from three positions using a skin biopsy punch with a diameter of 4 mm, and then allowed to dissolve in formamide at 37° C. for 24 hours, followed by measurement of the absorbance at a wavelength of 620 nm using a microplate reader.
# [5] = lymph nodes or spleen, BLM for one week, FACS
# [6] = skin tissue of BLM-induced scleroderma model mice
# [7] = skin of BLM-induced scleroderma model mice, quantitative real-time PCR
compound,measurement,setting,value
CC1(C)[C@@H](O[C@H]2O[C@H](C(=O)O)[C@@H](O)[C@H](O)[C@H]2O[C@@H]2O[C@H](C(=O)O)[C@@H](O)[C@H](O)[C@H]2O)CC[C@]2(C)[C@H]3C(=O)C=C4[C@@H]5C[C@@](C)(C(=O)O)CC[C@]5(C)CC[C@@]4(C)[C@]3(C)CC[C@@H]12 [glycyrrhizic acid],mRNA level of Snail1,[1],significantly decreased
same,increase in cells that have undergone Endo-MT (stained for both VE-cadherin and FSP1),[1]; immunostaining,suppressed
same,ratio of IFN-γ-positive cells among CD4-positive cells,[2]; [5],did not cause any change
same,ratio of IL17A-positive cells among CD4-positive cells,[2]; [5],did not cause any change
same,ratio of IL4-positive cells among CD4-positive T cells,"[2]; lymph nodes, BLM for one week, FACS",significant decreases
same,mRNA of arginase (marker for M2 macrophages),[2]; [6],decreased
same,mRNA of interleukin 1 b,[2]; [6],decreased
same,mRNA of interleukin 4,[2]; [6],decreased
same,ratio of IL4-positive cells among CD4-positive T cells,"[2]; spleen, BLM for one week, FACS",significant decreases
same,number of myofibroblasts (α-SMA-positive fibroblasts) in the skin,"[3]; BLM-induced scleroderma model mice, 30 mg/kg i.p. daily, four weeks",significant decrease
same,dermal thickness (thickening of the dermis),"[3]; BLM-induced scleroderma model mice, 30 mg/kg intraperitoneally every day for four weeks",reduced
same,amount of collagen fibers,"[3]; BLM-induced scleroderma model mice, skin at injection site, 30 mg/kg i.p. daily, four weeks",decreased
same,amount of collagen fibers,"[3]; control mice not subjected to BLM induction, 30 mg/kg i.p. daily, four weeks",did not cause any change
same,dermal thickness,"[3]; control mice not subjected to BLM induction, 30 mg/kg intraperitoneally every day for four weeks",did not cause any change
same,mRNA of Col1a1,[3]; [7],significant decreases
same,mRNA of Col1a2,[3]; [7],significant decreases
same,mRNA of Col3a1,[3]; [7],significant decreases
same,mRNA of Mmp13 (collagenase),[3]; [7],significant increase
same,mRNA of thrombospondin (Thbs1),[3]; [7],decrease
same,extravasation of Evans blue,[4],significantly decreased
